Test results as given in US10000771B2, “Nuclear targeting sequences” (Yeda Research and Development Co. Ltd., priority 2007, dated 2018).

System: Nup153c
Assay: Interaction with recombinant His-Nup153c
Format: binding
Conditions: immunoprecipitated ERK2 incubated with 0.5 μg recombinant His-Nup153c
Method: FIGS. 19A-19C are autoradiographs illustrating that phospho-SPS interacts with importin-7 and releases Nup153c binding without involvment of importin-β. […]. Interaction of ERK2 with Importin-7 is enhanced by EGF stimulation and EPE mutation. HeLa cells overexpressing WT-ERK (WT), ERK-APA (APA), ERK-EPE (EPE) or GFP were serum starved and treated with EGF (50 ng/ml, 10 min). The extracts of the treated cells were then subjected to coimmunoprecipitation using A/G beads pre-conjugated with anti GFP Ab and mild washes. The coimmunoprecipitated importin-7 (first panel) and importin-β (third panel), as well as their loading amounts (panels 2 and 4 respectively) were determined by WB using anti importin-7 (αImp7) and importin-β (αImpβ) Abs. The equal amount of immunoprecipitated ERKs was determined with anti GFP (αGFP; IP) Ab. FIG. 19B. Interaction of 2GFP-SPS and its mutants with importin-7. HeLa cells overexpressing 2GFP, 2GFP-SPS, 2GFP-APA and 2GFP-EPE constructs were subjected to coimmunoprecipitation as described in FIG. 19A (without EGF stimulation). FIG. 19C. Interaction of NUP153 with WTERK2 and its APA and EPE mutants. NUP153c is elevated in APA-ERK2, but reduced in EPE-ERK2. Immunoprecipitated and stringently washed WT-ERK2 (WT), APA-ERK2 (APA) or ERK2 from […] cells pre-treated with or without TPA (250 nM, 15 min) were incubated with 0.5 μg recombinant His-Nup153c. […]

WT-ERK2: wild-type ERK2 fused to GFP, prepared in pEGFP C1 [reference compound]
interaction with Nup153: interacts with Nup153
